Laboratory results: ChEMBL document CHEMBL4311943, “3-[(1S,2S,3R)-2,3-Difluoro-1-hydroxy-7-methylsulfonylindan-4-yl]oxy-5-fluorobenzonitrile (PT2977), a Hypoxia-Inducible Factor 2α (HIF-2α) Inhibitor for the Treatment of Clear Cell Renal Cell Carcinoma” (J Med Chem, 2019)
pEC50, pIC50: −log10 of the molar value. ≈ marks a conversion by molar mass, not a printed value. Blank lines part the entries; values can stand above or below the molecule they belong to. Calls of active or inactive are those of the source. The rule behind the calls is not given here.

Columns and labels:
UGT2B17 [1] = biological target: T1, UGT2B17 (Homo sapiens, UniProt O75795); assay: Substrate activity at UGT2B17 in human intestinal microsomes assessed as enzyme-mediated glucuronidation by measuring Km at 2 to 1000 uM preincubated for 5 mins followed by UDPGA addition and measured after 60 mins by LC-MS/MS analysis; assay type: ADME, Intestine
T1 sequence (O75795 whole entry): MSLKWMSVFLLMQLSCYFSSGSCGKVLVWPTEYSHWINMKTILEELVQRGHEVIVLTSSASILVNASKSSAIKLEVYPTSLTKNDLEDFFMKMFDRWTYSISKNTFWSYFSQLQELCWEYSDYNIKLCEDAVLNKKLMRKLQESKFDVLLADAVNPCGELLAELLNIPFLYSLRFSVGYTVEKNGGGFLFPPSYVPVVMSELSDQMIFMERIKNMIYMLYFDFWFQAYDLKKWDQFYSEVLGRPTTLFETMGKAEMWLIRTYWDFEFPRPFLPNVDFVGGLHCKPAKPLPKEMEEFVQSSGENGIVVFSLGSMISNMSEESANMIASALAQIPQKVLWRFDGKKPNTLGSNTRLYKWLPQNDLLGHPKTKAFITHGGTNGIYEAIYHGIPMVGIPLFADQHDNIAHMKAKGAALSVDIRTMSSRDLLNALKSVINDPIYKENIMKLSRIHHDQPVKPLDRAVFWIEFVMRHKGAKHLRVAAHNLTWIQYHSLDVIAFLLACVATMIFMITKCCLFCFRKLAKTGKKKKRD

[2] = biological target: T2, UDP-glucuronosyltransferase 2B17 (Homo sapiens, UniProt O75795); assay: Substrate activity at UGT2B17 in human intestinal microsomes assessed as enzyme-mediated glucuronidation by measuring Vmax per mg protein at 2 to 1000 uM preincubated for 5 mins followed by UDPGA addition and measured after 60 mins by LC-MS/MS analysis; assay type: ADME, Intestine; conditions: 1 h
T2 sequence (O75795 whole entry): T1 sequence (O75795 whole entry)

[3] = biological target: T3, Endothelial PAS domain-containing protein 1 (Homo sapiens, UniProt Q99814)
T3 sequence (Q99814 whole entry, the tested form may be a part): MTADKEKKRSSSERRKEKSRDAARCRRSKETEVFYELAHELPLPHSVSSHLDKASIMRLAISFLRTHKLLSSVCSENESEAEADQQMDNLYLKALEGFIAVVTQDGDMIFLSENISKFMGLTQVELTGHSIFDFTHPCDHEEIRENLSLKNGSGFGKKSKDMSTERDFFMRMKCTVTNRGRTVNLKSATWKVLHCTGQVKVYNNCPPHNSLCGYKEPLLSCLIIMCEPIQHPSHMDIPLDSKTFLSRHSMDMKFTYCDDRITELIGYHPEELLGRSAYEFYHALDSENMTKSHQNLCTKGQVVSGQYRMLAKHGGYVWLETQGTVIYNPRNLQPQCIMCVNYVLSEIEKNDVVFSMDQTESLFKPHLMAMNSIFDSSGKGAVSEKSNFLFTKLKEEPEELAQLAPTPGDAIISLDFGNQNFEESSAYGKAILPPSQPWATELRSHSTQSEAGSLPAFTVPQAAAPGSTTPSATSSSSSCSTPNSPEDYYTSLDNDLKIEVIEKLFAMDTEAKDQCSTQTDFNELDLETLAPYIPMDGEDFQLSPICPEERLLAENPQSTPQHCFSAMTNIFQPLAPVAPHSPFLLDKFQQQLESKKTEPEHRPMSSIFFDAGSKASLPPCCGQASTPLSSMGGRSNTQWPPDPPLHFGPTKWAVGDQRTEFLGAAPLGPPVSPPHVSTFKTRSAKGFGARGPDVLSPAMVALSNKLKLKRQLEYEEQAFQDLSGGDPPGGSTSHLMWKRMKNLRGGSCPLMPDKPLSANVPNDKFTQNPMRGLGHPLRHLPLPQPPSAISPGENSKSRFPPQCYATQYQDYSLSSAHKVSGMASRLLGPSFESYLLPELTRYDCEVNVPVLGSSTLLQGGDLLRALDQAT
Description: Inhibition of HIF-2alpha (unknown origin) expressed in human 786-O cells measured after 24 hrs by one-glo luciferase reporter gene assay

UGT2B17 [4] = biological target: T1, UGT2B17; assay: Substrate activity at recombinant human UGT2B17 expressed in baculovirus infected insect cell membranes assessed as enzyme-mediated glucuronidation by measuring Km at 50 uM preincubated for 5 mins followed by UDPGA addition and measured after 60 mins by LC-MS/MS analysis; assay type: ADME
[5] = biological target: T2, UDP-glucuronosyltransferase 2B17; assay: Substrate activity at recombinant human UGT2B17 expressed in baculovirus infected insect cell membranes assessed as enzyme-mediated glucuronidation by measuring Vmax per mg protein at 50 uM preincubated for 5 mins followed by UDPGA addition and measured after 60 mins by LC-MS/MS analysis; assay type: ADME; conditions: 1 h
[6] = biological target: T3, Endothelial PAS domain-containing protein 1; assay: Inhibition of N-(3-Chlorophenyl-4,6-t2)-4-nitrobenzo[c][1,2,5]oxadiazol-5-amine binding to his-tagged HIF-2alpha PAS-B domain (unknown origin) measured after 1 hr by scintillation proximity assay
BCRP (ABCG2) = BCRP (ABCG2) (Homo sapiens, UniProt Q9UNQ0); assay: Substrate activity at BCRP (unknown origin) expressed in MDCK2 cells assessed as efflux ratio of permeability at up to 300 uM; assay type: ADME, cell-based
Sequence of BCRP (ABCG2) (Q9UNQ0 whole entry): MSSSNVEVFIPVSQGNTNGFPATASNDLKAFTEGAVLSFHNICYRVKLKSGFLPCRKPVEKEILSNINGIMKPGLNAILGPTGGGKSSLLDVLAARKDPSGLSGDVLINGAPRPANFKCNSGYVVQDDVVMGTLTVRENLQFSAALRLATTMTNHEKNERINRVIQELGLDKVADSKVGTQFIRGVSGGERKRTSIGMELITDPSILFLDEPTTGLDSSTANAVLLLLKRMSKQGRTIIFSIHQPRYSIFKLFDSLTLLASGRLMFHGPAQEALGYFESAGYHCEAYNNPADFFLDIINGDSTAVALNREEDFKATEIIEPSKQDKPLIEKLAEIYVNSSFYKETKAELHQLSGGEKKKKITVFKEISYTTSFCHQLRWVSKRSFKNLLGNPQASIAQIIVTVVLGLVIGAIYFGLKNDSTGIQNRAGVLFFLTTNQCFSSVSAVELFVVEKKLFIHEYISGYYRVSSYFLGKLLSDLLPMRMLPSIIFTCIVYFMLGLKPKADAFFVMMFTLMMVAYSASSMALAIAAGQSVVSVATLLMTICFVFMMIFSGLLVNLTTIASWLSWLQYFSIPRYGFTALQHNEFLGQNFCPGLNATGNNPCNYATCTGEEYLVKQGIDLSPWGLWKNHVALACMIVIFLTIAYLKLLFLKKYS

[7] = Drug metabolism in iv or po dosed dog assessed as PT2385 formation; assay type: ADME, organism-based, Canis lupus familiaris; conditions: in vivo
Beta-glucuronidase = Beta-glucuronidase (Escherichia coli (strain K12), UniProt P05804); assay: Drug metabolism assessed as Escherichia coli beta-glucuronidase-mediated PT2385 formation after 30 mins by LC-MS/MS analysis; assay type: ADME; conditions: isolated protein, 0.5 h
Sequence of Beta-glucuronidase (P05804 whole entry): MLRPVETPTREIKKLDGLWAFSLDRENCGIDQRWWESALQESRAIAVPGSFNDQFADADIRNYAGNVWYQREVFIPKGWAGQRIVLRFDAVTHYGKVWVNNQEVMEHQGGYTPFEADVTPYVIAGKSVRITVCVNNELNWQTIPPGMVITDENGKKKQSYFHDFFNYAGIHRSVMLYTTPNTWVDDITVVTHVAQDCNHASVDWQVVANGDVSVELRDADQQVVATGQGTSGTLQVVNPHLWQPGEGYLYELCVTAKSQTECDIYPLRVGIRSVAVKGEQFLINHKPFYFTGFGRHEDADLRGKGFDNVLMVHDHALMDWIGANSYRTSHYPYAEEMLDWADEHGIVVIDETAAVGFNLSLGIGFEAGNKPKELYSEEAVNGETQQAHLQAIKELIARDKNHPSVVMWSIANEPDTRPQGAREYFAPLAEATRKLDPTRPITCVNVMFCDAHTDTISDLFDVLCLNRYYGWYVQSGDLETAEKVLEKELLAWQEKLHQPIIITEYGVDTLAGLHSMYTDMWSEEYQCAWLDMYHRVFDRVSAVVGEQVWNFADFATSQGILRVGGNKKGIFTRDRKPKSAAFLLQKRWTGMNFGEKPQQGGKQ

P-gp (ABCB1) = P-gp (ABCB1) (Homo sapiens, UniProt P08183); assay: Substrate activity at P-gp (unknown origin) expressed in MDCK2 cells assessed as efflux ratio of permeability at up to 300 uM; assay type: ADME, cell-based; conditions: MDCK-MDR1
[8] = biological target: T4, ATP-binding cassette sub-family C member 2 (Homo sapiens, UniProt Q92887); assay: Substrate activity at human MRP2 expressed in Sf9 membrane vesicles assessed as Vmax per mg protein; assay type: ADME
T4 sequence (Q92887 whole entry): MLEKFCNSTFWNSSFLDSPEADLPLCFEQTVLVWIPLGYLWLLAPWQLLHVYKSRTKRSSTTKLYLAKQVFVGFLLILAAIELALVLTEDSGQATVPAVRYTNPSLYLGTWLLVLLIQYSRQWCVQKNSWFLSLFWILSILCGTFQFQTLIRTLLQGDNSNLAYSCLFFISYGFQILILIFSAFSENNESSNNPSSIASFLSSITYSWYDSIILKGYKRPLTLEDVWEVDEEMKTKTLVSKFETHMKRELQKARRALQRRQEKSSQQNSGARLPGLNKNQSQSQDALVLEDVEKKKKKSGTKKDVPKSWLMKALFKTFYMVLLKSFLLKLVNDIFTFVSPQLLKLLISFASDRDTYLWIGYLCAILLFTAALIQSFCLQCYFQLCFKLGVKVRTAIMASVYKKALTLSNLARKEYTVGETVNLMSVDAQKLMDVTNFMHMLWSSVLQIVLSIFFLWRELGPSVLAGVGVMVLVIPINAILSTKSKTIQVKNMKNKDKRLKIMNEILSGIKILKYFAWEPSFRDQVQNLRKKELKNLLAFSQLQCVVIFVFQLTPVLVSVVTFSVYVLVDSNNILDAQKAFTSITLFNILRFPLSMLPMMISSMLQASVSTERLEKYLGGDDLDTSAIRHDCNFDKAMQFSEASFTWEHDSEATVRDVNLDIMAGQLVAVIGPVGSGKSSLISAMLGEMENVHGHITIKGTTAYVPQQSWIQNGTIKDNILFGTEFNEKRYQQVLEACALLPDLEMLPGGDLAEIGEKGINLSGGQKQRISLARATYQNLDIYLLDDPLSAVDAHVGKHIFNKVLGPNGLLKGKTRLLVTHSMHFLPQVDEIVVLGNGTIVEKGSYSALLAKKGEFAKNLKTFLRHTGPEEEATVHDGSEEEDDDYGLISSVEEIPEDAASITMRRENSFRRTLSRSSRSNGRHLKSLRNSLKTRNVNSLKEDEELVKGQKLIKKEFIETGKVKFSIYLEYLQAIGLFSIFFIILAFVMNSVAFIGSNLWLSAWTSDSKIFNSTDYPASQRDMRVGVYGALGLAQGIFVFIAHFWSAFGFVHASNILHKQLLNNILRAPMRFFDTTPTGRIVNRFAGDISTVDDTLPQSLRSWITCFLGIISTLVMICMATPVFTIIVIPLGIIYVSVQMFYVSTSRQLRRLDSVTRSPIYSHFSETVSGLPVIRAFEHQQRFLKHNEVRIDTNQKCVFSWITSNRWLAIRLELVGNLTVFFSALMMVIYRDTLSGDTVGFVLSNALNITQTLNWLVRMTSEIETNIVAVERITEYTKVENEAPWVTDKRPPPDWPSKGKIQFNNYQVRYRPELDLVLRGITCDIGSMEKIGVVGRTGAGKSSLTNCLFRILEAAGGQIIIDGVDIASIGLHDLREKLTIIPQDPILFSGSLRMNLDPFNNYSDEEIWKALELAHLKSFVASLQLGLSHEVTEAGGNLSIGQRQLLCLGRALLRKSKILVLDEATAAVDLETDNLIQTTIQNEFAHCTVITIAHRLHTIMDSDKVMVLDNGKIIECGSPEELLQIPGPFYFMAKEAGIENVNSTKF

MRP2 (ABCC2) = MRP2 (ABCC2) (Homo sapiens, UniProt Q92887); assay: Substrate activity at human MRP2 expressed in Sf9 membrane vesicles assessed as Km; assay type: ADME; conditions: Sf9 membrane vesicles expressing human MRP2
Sequence of MRP2 (ABCC2) (Q92887 whole entry): as above

[9] = Drug level in human hepatocytes treated with PT2385 assessed as metabolite formation by HPLC-UV analysis; assay type: ADME, cell-based, Hepatocyte
[10] = biological target: T4, ATP-binding cassette sub-family C member 2; assay: Ratio of compound effect for substrate activity at human MRP2 expressed in Sf9 membrane vesicles assessed as protein-mediated drug uptake in presence of ATP to compound effect for substrate activity at human MRP2 expressed in Sf9 membrane vesicles assessed as protein-mediated drug uptake in absence of ATP; assay type: ADME, cell membranes
[11] = Lipophilicity, log D of the compound at pH 7.4; assay type: physicochemical; conditions: buffer
[12] = biological target: UDP-glucuronosyltransferase 1A7 (Homo sapiens, UniProt Q9HAW7); assay: Substrate activity at recombinant human UGT1A7 expressed in baculovirus infected insect cell membranes assessed as enzyme-mediated glucuronidation by measuring PT2639 formation at 50 uM preincubated for 5 mins followed by UDPGA addition and measured after 60 mins by LC-MS/MS analysis; assay type: ADME; conditions: 1 h
Sequence of UDP-glucuronosyltransferase 1A7 (Q9HAW7 whole entry): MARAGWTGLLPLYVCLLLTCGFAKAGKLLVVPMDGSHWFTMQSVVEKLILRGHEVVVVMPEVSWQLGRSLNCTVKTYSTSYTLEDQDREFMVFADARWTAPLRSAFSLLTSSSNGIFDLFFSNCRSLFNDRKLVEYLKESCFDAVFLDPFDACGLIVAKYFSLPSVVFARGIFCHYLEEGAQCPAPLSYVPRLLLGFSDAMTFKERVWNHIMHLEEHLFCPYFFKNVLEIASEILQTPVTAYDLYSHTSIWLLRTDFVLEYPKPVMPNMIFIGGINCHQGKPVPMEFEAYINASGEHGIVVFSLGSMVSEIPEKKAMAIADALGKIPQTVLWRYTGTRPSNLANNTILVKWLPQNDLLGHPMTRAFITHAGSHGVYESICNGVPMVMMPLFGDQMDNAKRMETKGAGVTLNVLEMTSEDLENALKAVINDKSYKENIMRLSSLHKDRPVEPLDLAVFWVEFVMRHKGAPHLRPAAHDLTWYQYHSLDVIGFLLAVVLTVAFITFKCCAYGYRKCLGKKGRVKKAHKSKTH

[13] = Dose normalized AUClast in CD-1 mouse at 10 mg/kg, po administered via gavage by UPLC-MS analysis; assay type: ADME, organism-based; conditions: in vivo
[14] = Drug level in plasma of SCID Beige mouse xenografted with human 786-O cells at 10 mg/kg, po administered twice daily via gavage for 3 days measured 12 hrs post-last dose; assay type: ADME, organism-based
[15] = Cmin in patient with advanced solid tumor at 800 mg, po administered twice daily measured on day 15 measured after 12 hrs; conditions: human, in vivo
[16] = Dose normalized AUClast in Sprague-Dawley rat at 10 mg/kg, po administered via gavage by UPLC-MS analysis; assay type: ADME, organism-based; conditions: in vivo
[17] = Dose normalized AUClast in Beagle dog at 5 mg/kg, po administered via gavage by UPLC-MS analysis; assay type: ADME, organism-based, Canis lupus familiaris; conditions: in vivo
[18] = biological target: UDP-glucuronosyltransferase 1A3 (Homo sapiens, UniProt P35503); assay: Substrate activity at recombinant human UGT1A3 expressed in baculovirus infected insect cell membranes assessed as enzyme-mediated glucuronidation by measuring PT2639 formation at 50 uM preincubated for 5 mins followed by UDPGA addition and measured after 60 mins by LC-MS/MS analysis; assay type: ADME; conditions: 1 h
Sequence of UDP-glucuronosyltransferase 1A3 (P35503 whole entry): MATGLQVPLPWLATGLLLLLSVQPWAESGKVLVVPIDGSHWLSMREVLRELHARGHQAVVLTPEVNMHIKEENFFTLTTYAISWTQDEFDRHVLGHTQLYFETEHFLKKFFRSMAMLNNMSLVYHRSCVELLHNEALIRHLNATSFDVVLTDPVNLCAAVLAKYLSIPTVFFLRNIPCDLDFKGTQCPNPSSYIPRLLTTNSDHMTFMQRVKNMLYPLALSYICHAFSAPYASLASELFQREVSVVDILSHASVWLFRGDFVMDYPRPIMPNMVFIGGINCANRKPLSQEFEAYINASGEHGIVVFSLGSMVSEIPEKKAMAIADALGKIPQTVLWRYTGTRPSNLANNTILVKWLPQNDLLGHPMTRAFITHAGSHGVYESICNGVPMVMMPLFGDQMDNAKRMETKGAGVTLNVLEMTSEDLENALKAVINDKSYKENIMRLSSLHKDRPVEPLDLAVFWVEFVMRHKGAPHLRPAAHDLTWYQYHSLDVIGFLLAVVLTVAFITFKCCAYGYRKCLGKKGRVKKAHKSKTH

[19] = Protein binding in human plasma at 10 uM measured after 4 hrs by LC-MS/MS analysis; assay type: ADME, cell-free; conditions: read-out: PPB (converted)
[20] = Thermodynamic aqueous solubility of the compound at pH 7.4; assay type: physicochemical; conditions: buffer, read-out: Therm_solubility
[21] = Drug metabolism in po dosed dog urine assessed as PT2639 formation; assay type: ADME, organism-based, Canis lupus familiaris; conditions: in vivo
[22] = Dose normalized AUClast in monkey at 10 mg/kg, po administered via gavage by UPLC-MS analysis; assay type: ADME, organism-based, Macaca mulatta; conditions: rhesus monkey, in vivo
Homo sapiens = assay: In vivo inhibition of HIF-2alpha in patient with advanced solid tumor assessed as reduction in EPO expression at >500 ng/ml, po administered once daily; assay type: organism-based
Mus musculus = assay: In vivo inhibition of HIF-2alpha in SCID Beige mouse xenografted with human 786-O cells assessed as reduction in cyclin D1 mRNA expression at 10 mg/kg, po administered twice daily via gavage for 3 days measured 12 hrs post-last dose by qRT-PCR analysis; assay type: functional, organism-based
[23] = Protein binding in mouse plasma at 10 uM measured after 4 hrs by LC-MS/MS analysis; assay type: ADME, cell-free; conditions: read-out: PPB (converted)
786-0 = assay: Antitumor activity against human 786-O cells xenografted in SCID Beige mouse assessed as tumor regression at 10 mg/kg, po administered twice daily via gavage for 3 days measured 12 hrs post-last; assay type: functional, organism-based
[24] = Drug metabolism in human hepatocytes assessed as PT2639 formation by HPLC-UV analysis; assay type: ADME, cell-based, Hepatocyte

SMILES: CS(=O)(=O)c1ccc(Oc2cc(F)cc(C#N)c2)c2c1[C@H](O)C[C@@H]2F
Km at 1 h, up to 1000 µM (UGT2B17 [1]): 130 µM
Vmax [2]: 0.3 pmol/min
pEC50 [3]: 6.34
Km at 1 h, 50 µM (UGT2B17 [4]): 12 µM
Vmax [5]: 1.4 pmol/min
pIC50 [6]: 6.68

SMILES: CS(=O)(=O)c1ccc(Oc2cc(F)cc(C#N)c2)c2c1[C@H](O)CC2
Km at 1 h, up to 1000 µM (UGT2B17 [1]): 40 µM
Vmax [2]: 0.8 pmol/min
Km at 1 h, 50 µM (UGT2B17 [4]): 12 µM
Vmax [5]: 3.8 pmol/min

SMILES: CS(=O)(=O)c1ccc(Oc2cc(F)cc(C#N)c2)c2c1[C@H](O[C@@H]1O[C@H](C(=O)O)[C@@H](O)[C@H](O)[C@H]1O)C(F)(F)C2
efflux ratio (BCRP (ABCG2)): < 2
Drug metabolism [7]: Metabolite_Detected
Drug metabolism (Beta-glucuronidase): Metabolite_Detected
efflux ratio (P-gp (ABCB1)): < 2
Vmax [8]: 1230 pmol/min
Km (MRP2 (ABCC2)): 97 µM
Drug metabolism [9]: Metabolite_Detected
Ratio [10]: 32

SMILES: CS(=O)(=O)c1ccc(Oc2cc(F)cc(C#N)c2)c2c1[C@H](O)C[C@H]2F
pIC50 [6]: < 5.00

Further lines, with some results ahead:

Km at 1 h, up to 1000 µM (UGT2B17 [1]): 26 µM
Vmax [2]: 11 pmol/min
Km at 1 h, 50 µM (UGT2B17 [4]): 15 µM
Vmax [5]: 50 pmol/min
SMILES: CS(=O)(=O)c1ccc(Oc2cc(F)cc(C#N)c2)c2c1[C@H](O)[C@@H](F)C2

Km at 1 h, up to 1000 µM (UGT2B17 [1]): 28 µM
Vmax [2]: 2.1 pmol/min
Km at 1 h, 50 µM (UGT2B17 [4]): 15 µM
Vmax [5]: 14 pmol/min
SMILES: CS(=O)(=O)c1ccc(Oc2cc(F)cc(C#N)c2)c2c1[C@H](O)[C@H](F)C2

logD [11]: 2.2
Drug metabolism [12]: Metabolite_Notdetected
Km at 1 h, up to 1000 µM (UGT2B17 [1]): 20 µM
AUClast/dose [13]: 21 µM·h
concentration at 12 h [14]: 260 ng/mL
concentration at 12 h [15]: 860 ng/mL
AUClast/dose [16]: 5.1 µM·h
Vmax [2]: 49 pmol/min
AUClast/dose [17]: 7.2 µM·h
Drug metabolism [18]: Metabolite_Notdetected
fraction unbound at 4 h, 10 µM [19]: 0.18
Km at 1 h, 50 µM (UGT2B17 [4]): 11 µM
solubility thermodynamic [20]: 15 µg/mL (≈ 39.1 µM)
Drug metabolism [21]: Metabolite_Detected
Vmax [5]: 280 pmol/min
AUClast/dose [22]: 3.1 µM·h
inhibition (INH) (Homo sapiens): Active
fraction unbound at 4 h, 10 µM [23]: 0.29
Drug metabolism [24]: Metabolite_Detected
SMILES: CS(=O)(=O)c1ccc(Oc2cc(F)cc(C#N)c2)c2c1[C@H](O)C(F)(F)C2
inhibition (Mus musculus): Active
Activity (786-0): Active

Km at 1 h, up to 1000 µM (UGT2B17 [1]): 15 µM
Vmax [2]: 72 pmol/min
pEC50 [3]: 8.40
Km at 1 h, 50 µM (UGT2B17 [4]): 5.5 µM
Vmax [5]: 440 pmol/min
pIC50 [6]: 8.05
SMILES: CS(=O)(=O)c1ccc(Oc2cc(F)cc(C#N)c2)c2c1[C@H](O)C(F)(F)[C@@H]2F
